Data on 21 compounds can be found in ChEMBL document CHEMBL1122503 (J Med Chem, 1983).

Data set [1] relates to Nucleic Acid.
Another data set concerns L1210. Kind of data set: cells. The following applies: Mus musculus, L1210, read-out: ID50.
A short description of another data set: physchem. The following applies: 20% aqueous DMF.
In data set [2] the test system is Nucleic Acid. The source holds these as a separate data set.

Description for L1210: Growth inhibition against cultured murine L1210 leukemia cells
Description for physchem: pKa value determined spectrophotometrically in 20% aqueous DMF

As a reminder, the pKa is the negative logarithm of the acid dissociation constant. Low readings indicate a group that gives up its proton readily, high ones a group that holds its proton tightly. In the case of `COc1cc(NS(C)(=O)=O)ccc1Nc1c2ccccc2nc2cc(N)ccc12`, the Log K in the data set with Nucleic Acid [1] worked out at 6.21; in the data set on Nucleic Acid [2] it was 6.13. For the same compound, in the data set with L1210, the IC50 amounted to 0.0055 µM. The pKa in “physchem” stood at 9.5.

As for `CNC(=O)c1cccc2c(Nc3ccc(NS(C)(=O)=O)cc3OC)c3ccc([N+](=O)[O-])cc3nc12`, the figures for the Log K in the data set on Nucleic Acid [1] and in the data set on Nucleic Acid [2] were 5.71 and 6.65, respectively. Also, in the data set with L1210, the IC50 worked out at 0.303 µM. The compound also returned a pKa in the data set “physchem” of 4.71.

`COc1cc(NS(C)(=O)=O)ccc1Nc1c2ccccc2nc2c(C(=O)NCC(N)=O)cccc12`: the Log K in the data set with Nucleic Acid [1] was 5.39; in the data set with Nucleic Acid [2] it was 6.4. For the same compound, the IC50 with L1210 amounted to 0.85 µM.

Take `COc1cc(NS(C)(=O)=O)ccc1Nc1c2ccc(Cl)cc2nc2c(C(=O)NCC(N)=O)cccc12`: the Log K came to 6.06 with Nucleic Acid [1] and 6.83 with Nucleic Acid [2]. Further, the IC50 in the data set on L1210 is 0.89 µM. In addition, the pKa in the data set “physchem” came to 5.5.

`COc1cc(NS(C)(=O)=O)ccc1Nc1c2ccccc2nc2cc(Br)ccc12`: the Log K worked out at 6.29 with Nucleic Acid [1] and 6.12 in the data set with Nucleic Acid [2]. The IC50 in the data set with L1210 worked out at 0.05 µM.

Consider `CNC(=O)c1cccc2c(Nc3ccc(NS(C)(=O)=O)cc3OC)c3ccc(C)cc3nc12`, for which the Log K in the data set on Nucleic Acid [1] amounted to 6.22; in the data set on Nucleic Acid [2], 6.68. In addition, the IC50 with L1210 came to 0.17 µM. The compound also showed a pKa in the data set “physchem” of 4.71.

Take `COc1cc(NS(C)(=O)=O)ccc1Nc1c2ccccc2nc2cc(Cl)ccc12`: the Log K stood at 6.06 in the data set on Nucleic Acid [1] and 5.98 with Nucleic Acid [2]. Further, the IC50 in the data set on L1210 is 0.07 µM.

In the case of `COc1cc(NS(C)(=O)=O)ccc1Nc1c2ccccc2nc2ccccc12`, the Log K in the data set on Nucleic Acid [1] was 5.57; in the data set with Nucleic Acid [2], 5.65.

`COc1cc(NS(C)(=O)=O)ccc1Nc1c2ccc([N+](=O)[O-])cc2nc2c(C(N)=O)cccc12`: the Log K amounted to 5.96 in the data set on Nucleic Acid [1] and 6.4 in the data set on Nucleic Acid [2]. Further, in the data set on L1210, the IC50 was determined as 0.35 µM. In addition, in “physchem”, the pKa amounted to 4.71.

As to `COc1cc(NS(C)(=O)=O)ccc1Nc1c2ccccc2nc2cc([N+](=O)[O-])ccc12`, the Log K in the data set with Nucleic Acid [1] stood at 5.65; with Nucleic Acid [2], 6.13. For the same compound, the IC50 in the data set with L1210 was 0.11 µM. In “physchem”, this compound returned a pKa of 5.52.

For the compound `COc1cc(NS(C)(=O)=O)ccc1Nc1c2ccccc2nc2c(C(N)=O)cccc12`, the Log K with Nucleic Acid [1] amounted to 5.47; with Nucleic Acid [2], 6.13. Moreover, in the data set on L1210, the IC50 was 0.27 µM.

`COc1cc(NS(C)(=O)=O)ccc1Nc1c2ccc(C)cc2nc2c(C(=O)NCC(N)=O)cccc12`: the Log K was determined as 6 in the data set with Nucleic Acid [1] and 6.69 in the data set with Nucleic Acid [2]. Also, the IC50 in the data set with L1210 turned out to be 0.46 µM. The pKa in “physchem” turned out to be 4.53.

Take `CNC(=O)c1cccc2c(Nc3ccc(NS(C)(=O)=O)cc3OC)c3ccc(OC)cc3nc12`: the Log K was found to be 6.38 in the data set on Nucleic Acid [1] and 6.82 with Nucleic Acid [2]. Moreover, in the data set with L1210, the IC50 turned out to be 0.068 µM. The pKa in the data set “physchem” was determined as 4.82.

In the case of `COc1cc(NS(C)(=O)=O)ccc1Nc1c2ccc(C)cc2nc2c(C(N)=O)cccc12`, the figures for the Log K in the data set with Nucleic Acid [1] and in the data set with Nucleic Acid [2] were 6.4 and 6.3, respectively. Further, the IC50 with L1210 was found to be 0.2 µM. Also, the pKa in the data set “physchem” came out at 4.71.

Take `CNC(=O)c1cccc2c(Nc3ccc(NS(C)(=O)=O)cc3OC)c3ccccc3nc12`: the results for the Log K with Nucleic Acid [1] and in the data set with Nucleic Acid [2] were 5.54 and 6.18, respectively. For the same compound, in the data set with L1210, the IC50 is 0.27 µM.

On to `COc1cc(NS(C)(=O)=O)ccc1Nc1c2ccccc2nc2cc(C)ccc12`, for which the results for the Log K in the data set with Nucleic Acid [1] and with Nucleic Acid [2] were 5.95 and 6.08, respectively. The IC50 in the data set on L1210 was 0.012 µM.

`CNC(=O)c1cccc2c(Nc3ccc(NS(C)(=O)=O)cc3OC)c3ccc(Cl)cc3nc12`: the Log K in the data set on Nucleic Acid [1] came out at 6.29; with Nucleic Acid [2], 6.65. The IC50 with L1210 is 0.217 µM. Moreover, in “physchem”, the pKa amounted to 5.68.

As for `CNC(=O)c1cccc2c(Nc3ccc(NS(C)(=O)=O)cc3OC)c3ccc(N)cc3nc12`, the Log K in the data set with Nucleic Acid [1] was found to be 6.29; in the data set on Nucleic Acid [2], 6.82. Moreover, in the data set on L1210, the IC50 is 0.021 µM.

For `COc1ccc2c(Nc3ccc(NS(C)(=O)=O)cc3OC)c3ccccc3nc2c1`, the Log K worked out at 5.83 in the data set on Nucleic Acid [1] and 5.97 in the data set with Nucleic Acid [2]. Moreover, the IC50 in the data set with L1210 was found to be 0.022 µM.

As to `COc1cc(NS(C)(=O)=O)ccc1Nc1c2ccccc2nc2cc(I)ccc12`, the Log K in the data set with Nucleic Acid [1] amounted to 6.35; in the data set on Nucleic Acid [2], 6.2. Moreover, the IC50 with L1210 stood at 0.05 µM.

For the compound `COc1cc(NS(C)(=O)=O)ccc1Nc1c2ccc(Cl)cc2nc2c(C(N)=O)cccc12`, the Log K in the data set on Nucleic Acid [1] came to 6.33; in the data set on Nucleic Acid [2], 6.58. Moreover, in the data set on L1210, the IC50 was 0.52 µM. Further, the pKa in the data set “physchem” turned out to be 5.68.
